{"source": "patent US11970731B2", "about": "“Enhancement of nucleic acid polymerization by aromatic compounds” (priority 2018, dated 2024)", "key": {"DNA polymerase": {"test_system": "DNA polymerase", "assay": "Screen of PEMs for enhancement of XNTP polymerization (primer extension, gel electrophoresis)", "format": "biochemical", "conditions": "for DNA polymerase-mediated primer extension with XNTPs (length of extension products): FIG. 4 gel, 45 mer template, without PEM additive up to only around 14 XNTPs", "experimental": "A representative primer extension reaction may include the following reagents: 2 pmol primer, 2.2 pmol 45 mer oligonucleotide template, 50 pmol of each XNTP (XATP, XCTP, XGTP, and XTTP), 50 mM Tris HCl, pH 6.79, 200 mM NaCl, 20% PEG, 5% NMS, 0.5 nmol polyphosphate 60.19, 0.3 mM MnCl2, and 0.6 μg of purified recombinant DNA polymerase protein. Reactions may be run for 1 hr at 23° C. Reaction products (i.e., constrained Xpandomers) are treated to cleave the phosphoramidate bonds, thereby generating linearized Xpandomers. Reaction products may be analyzed using gel electrophoresis on 4-12% acrylamide gels to resolve and visualize Xpandomer products of different lengths. For the PEM screen described above, PEMs were typically tested in the micro to millimolar range.\nAgain, this PEM activity is specific for compound 2, as other unrelated aromatic compounds had no effect (lanes 2-7)."}, "C4552 DNA polymerase": {"target": "T1, C4552 DNA polymerase (Saccharolobus solfataricus, UniProt Q97W02, A155G/A42V/D156R/D292Y/D294N/E291S/E324K/E325K/E327K/E79L/G187P/G299W/I153V/I189F/I248T/I295S/K152A/K317Q/K321Q/K56Y/K78D/L293W/M76W/N188Y/P184Q/Q82W/Q83G/R300S/S297Y/S86E/T290K/T301W/V289W/V296Q)", "T1 construct": "made in house", "T1 sequence (Q97W02 other isoform, or with tags, fused parts or gaps with the stated changes)": "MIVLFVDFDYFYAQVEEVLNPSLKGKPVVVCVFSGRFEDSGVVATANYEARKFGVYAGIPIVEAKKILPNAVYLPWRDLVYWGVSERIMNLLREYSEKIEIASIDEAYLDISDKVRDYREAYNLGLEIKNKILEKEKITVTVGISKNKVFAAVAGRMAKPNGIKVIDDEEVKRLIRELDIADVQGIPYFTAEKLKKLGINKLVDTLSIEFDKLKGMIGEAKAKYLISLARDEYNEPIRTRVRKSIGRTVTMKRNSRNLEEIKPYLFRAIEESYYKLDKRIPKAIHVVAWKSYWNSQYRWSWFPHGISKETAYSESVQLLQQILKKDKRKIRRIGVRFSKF", "assay": "Primer extension assays using three 100mer templates derived from HIV1, 2 and 3 genomes", "format": "biochemical, Sulfolobus solfataricus", "conditions": "0.5 mM PEM; HIV1, HIV2, HIV3 100mer templates; 30 minutes at 23° C.; FIG. 9", "experimental": "PEM activity of compounds 9-11 was tested in primer extension assays using three 100mer templates, derived from the HIV1, 2, and 3 genomes. Primer extension reactions included the following reagents: 75 mM TrisCl, pH 8.44, 175 mM NH4OAc, 20% PEG8K, 5% NMS, 0.8 nmol PP-60.20, 0.6 mM MnCl2, 2.3 μg Tth single-strand binding protein (SSB), 0.5 M or 1 M urea, 200 pmol each XNTP, 1.1 pmol template, 1 pmol oligonucleotide primer, 1.2 μg purified recombinant C4552 DNA polymerase, and 0.5 mM PEM. 10 μL primer extension reactions were run for 30 minutes at 23° C. and reaction products were analyzed by gel electrophoresis."}, "[1]": {"target": "T2, C4760 DNA polymerase (a variant of DPO4) (Saccharolobus solfataricus, UniProt Q97W02, A155G/A42V/D156R/D292Y/D294N/E291S/E324K/E325K/E327K/E63R/E79L/G187P/G299W/I153V/I189F/I248T/I295S/K152A/K317Q/K321Q/K56Y/K78D/L293W/M76W/N188Y/P184Q/Q82W/Q83G/R300S/S297Y/S86E/T290K/T301W/V289W/V296Q)", "T2 construct": "made in house", "T2 sequence (Q97W02 other isoform, or with tags, fused parts or gaps with the stated changes)": "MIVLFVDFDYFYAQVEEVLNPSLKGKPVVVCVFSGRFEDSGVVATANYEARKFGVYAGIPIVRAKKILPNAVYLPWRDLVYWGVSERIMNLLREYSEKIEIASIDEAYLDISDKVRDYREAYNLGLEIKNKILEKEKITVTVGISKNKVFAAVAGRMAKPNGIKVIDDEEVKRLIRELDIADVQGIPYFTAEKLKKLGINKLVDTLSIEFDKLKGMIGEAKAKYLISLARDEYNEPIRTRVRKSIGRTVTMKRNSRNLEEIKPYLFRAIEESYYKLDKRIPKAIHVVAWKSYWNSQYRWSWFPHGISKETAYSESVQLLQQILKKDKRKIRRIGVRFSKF", "assay": "Primer extension assays using the HIV2 100 mer template", "format": "biochemical, Sulfolobus solfataricus", "experimental": "PEM activity of compound 12 was tested in primer extension assays using the HIV2 100 mer template. Primer extension reactions included the following reagents: 50 mM TrisCl, 200 mM NH4OAc, 20% PEG8K, 5% NMS, 0.6 nmol PP-60.20, 0.6 mM MnCl2, 2.75 μg/μl Eco single-strand binding protein (SSB), 1 M urea, 50 pmol each XNTP, 1.1 pmol template, 1 pmol oligonucleotide primer, 1.2 μg/μl purified recombinant C4760 DNA polymerase (SEQ ID NO:2), and 0.5, 1, or 1.5 mM PEM. 10 μL primer extension reactions were run for 30 minutes at 23° C. and reaction products were analyzed by gel electrophoresis. […] Lanes 2-4 show primer extension products from reactions with a structurally related additive lacking robust PEM activity.\nPEM activity of compounds 13 and 14 was tested in primer extension assays using the HIV2 100 mer template. Primer extension reactions included the following reagents: 50 mM TrisCl, 200 mM NH4OAc, 20% PEG8K, 5% NMS, 0.6 nmol PP-60.20, 0.6 mM MnCl2, 2.75 μg/μl Eco single-strand binding protein (SSB), 1 M urea, 50 pmol each XNTP, 1.1 pmol template, 1 pmol oligonucleotide primer, 1.2 μg/μl purified recombinant C4760 DNA polymerase (a variant of DPO4, see SEQ ID NO:2), and 0.5, 1, 1.52, or 2.5 mM PEM. 10 μL primer extension reactions were run for 30 minutes at 23° C. and reaction products were analyzed by gel electrophoresis. A representative gel showing primer extension products is presented in FIG. 11 (the position of the full length HIV2 100 mer is indicated by the arrow).\nPEM activity of compounds 16, 17, and 18 and combinations thereof were tested in primer extension assays using the HIV2-derived 100mer template. Primer extension reactions included the following reagents: 50 mM TrisCl, 200 mM NH4OAc, 20% or 25% PEG8K, 5% NMS, 0.6 nmol PP-60.20, 0.6 mM MnCl2, 2 μg Kod single-strand binding protein (SSB), 1 M urea, 50 pmol each XNTP, 1 pmol template, 1 pmol oligonucleotide primer, 1.2 μg purified recombinant C4760 DNA polymerase (a variant of DPO4, see SEQ ID NO:2), and 0.5-2 mM PEM. 10 μL primer extension reactions were run for 30 minutes at 37° C. and reaction products were analyzed by gel electrophoresis. A representative gel showing primer extension products is presented in FIG. 13 (the position of a 100mer product is indicated by the arrow)."}, "[2]": {"conditions": "0.5, 1, 1.52, or 2.5 mM PEM, Eco SSB, 30 minutes at 23° C., FIG. 11, comparator compound 10 (lanes 1-4)"}, "[3]": {"conditions": "2 mM compound 16, 0.5, 1, 2, and 3 mM compound 17, Kod SSB, 30 minutes at 37° C., FIG. 13, comparator compound 14 (lane 1)"}}}
{"smiles": "O=C(O)c1ccc(-n2cc(-c3cncc(-c4cn(-c5ccc(C(=O)O)c(O)c5)nn4)c3)nn2)cc1O", "note": "[Compound 2, 4,4′-(pyridine-3,5-diylbis(1H-1,2,3-triazole-4,1-diyl))bis(2-hydroxybenzoic acid)]", "values": [{"measurement": "primer extension activity with XNTPs", "setting": "DNA polymerase; FIG. 5 gel, compound at various concentrations (lanes 8-10), without PEM additive modest activity", "value": "significantly enhances primer extension activity"}]}
{"smiles": "O=C(O)c1ccc(-n2cc(-c3cccc(-c4cn(-c5ccc(C(=O)O)c(O)c5)nn4)c3)nn2)cc1O", "note": "[Compound 3, 4,4′-(1,3-phenylenebis(1H-1,2,3-triazole-4,1-diyl))bis(2-hydroxybenzoic acid)]", "values": [{"measurement": "DNA polymerase-mediated primer extension with XNTPs (length of extension products)", "setting": "DNA polymerase", "value": "enables the polymerase to synthesize considerably longer extension products"}]}
{"smiles": "O=C(O)c1ccc(-n2cc(-c3ccc4[nH]c5ccc(-c6cn(-c7ccc(C(=O)O)c(O)c7)nn6)cc5c4c3)nn2)cc1O", "note": "[Compound 4, 4,4′-((9H-carbazole-3,6-diyl)bis(1H-1,2,3-triazole-4,1-diyl))bis(2-hydroxybenzoic acid)]", "values": [{"measurement": "DNA polymerase-mediated primer extension with XNTPs (length of extension products)", "setting": "DNA polymerase", "value": "enables the polymerase to synthesize considerably longer extension products"}]}
{"smiles": "COc1cc(-c2cn(-c3ccc(C(=O)O)c(O)c3)nn2)nc(-c2cn(-c3ccc(C(=O)O)c(O)c3)nn2)c1", "note": "[Compound 9, 4,4′-((4-methoxypyridine-2,6-diyl)bis(1H-1,2,3-triazole-4,1-diyl))bis(2-hydroxybenzoic acid)]", "values": [{"measurement": "PEM activity: polymerization of XNTPs into Xpandomer copies of 100 mer templates", "setting": "C4552 DNA polymerase", "value": "enable XNTP polymerization at least as efficiently as compound 1"}]}
{"smiles": "O=C(O)c1ccc(-n2cc(-c3cc([N+](=O)[O-])cc(-c4cn(-c5ccc(C(=O)O)c(O)c5)nn4)n3)nn2)cc1O", "note": "[Compound 11, 4,4′-((4-nitropyridine-2,6-diyl)bis(1H-1,2,3-triazole-4,1-diyl))bis(2-hydroxybenzoic acid)]", "values": [{"measurement": "PEM activity: polymerization of XNTPs into Xpandomer copies of 100 mer templates", "setting": "C4552 DNA polymerase", "value": "enable XNTP polymerization at least as efficiently as compound 1"}]}
{"smiles": "N#Cc1cc(-c2cn(-c3ccc(O)c(C(=O)O)c3)nn2)nc(-c2cn(-c3ccc(O)c(C(=O)O)c3)nn2)c1", "note": "[Compound 12, 5,5′-((4-cyanopyridine-2,6-diyl)bis(1H-1,2,3-triazole-4,1-diyl))bis(2-hydroxybenzoic acid)]", "values": [{"measurement": "PEM activity: polymerization of XNTPs into Xpandomer copies of the 100 mer template", "setting": "[1]; 0.5, 1, or 1.5 mM PEM, Eco SSB, 30 minutes at 23° C., FIG. 10, comparable to compound 10 (lane 1)", "value": "enables polymerization of XNTPs into full length Xpandomer copies of the 100 mer template"}]}
{"smiles": "Cc1cc(-c2cn(-c3ccc(C(=O)O)c(O)c3)nn2)nc(-c2cn(-c3ccc(C(=O)O)c(O)c3)nn2)c1", "note": "[Compound 13, 4,4′-((4-methylpyridine-2,6-diyl)bis(1H-1,2,3-triazole-4,1-diyl))bis(2-hydroxybenzoic acid)]", "values": [{"measurement": "PEM activity: polymerization of XNTPs into Xpandomer copies of the 100 mer template", "setting": "[1]; [2]", "value": "enables polymerization of XNTPs into full length Xpandomer copies of the 100 mer template in a manner comparable to that of compound 10"}]}
{"smiles": "CCOC(=O)c1cc(-c2cn(-c3ccc(C(=O)O)c(O)c3)nn2)nc(-c2cn(-c3ccc(C(=O)O)c(O)c3)nn2)c1", "note": "[Compound 14, 4,4′-((4-(ethoxycarbonyl)pyridine-2,6-diyl)bis(1H-1,2,3-triazole-4,1-diyl))bis(2-hydroxybenzoic acid)]", "values": [{"measurement": "PEM activity: polymerization of XNTPs into Xpandomer copies of the 100 mer template", "setting": "[1]; [2]", "value": "enables polymerization of XNTPs into full length Xpandomer copies of the 100 mer template in a manner comparable to that of compound 10"}]}
{"smiles": "COC(=O)c1cc(-c2cn(-c3ccc(C(=O)O)c(O)c3)nn2)nc(-c2cn(-c3ccc(C(=O)O)c(O)c3)nn2)c1", "note": "[Compound 16, 4,4′-((4-(methoxycarbonyl)pyridine-2,6-diyl)bis(1H-1,2,3-triazole-4,1-diyl))bis(2-hydroxybenzoic acid)]", "values": [{"measurement": "PEM activity: polymerization of XNTPs into Xpandomer copies of the 100 mer template", "setting": "[1]; [3]", "value": "enable polymerization of XNTPs into lengthy Xpandomer copies of the 100 mer template in a manner comparable to that of compound 14"}]}
{"smiles": "CCNC(=O)c1cc(-c2cn(-c3ccc(C(=O)O)c(O)c3)nn2)nc(-c2cn(-c3ccc(C(=O)O)c(O)c3)nn2)c1", "note": "[Compound 17, 4,4′-((4-(ethylcarbamoyl)pyridine-2,6-diyl)bis(1H-1,2,3-triazole-4,1-diyl))bis(2-hydroxybenzoic acid)]", "values": [{"measurement": "PEM activity: polymerization of XNTPs into Xpandomer copies of the 100 mer template", "setting": "[1]; [3]", "value": "enable polymerization of XNTPs into lengthy Xpandomer copies of the 100 mer template in a manner comparable to that of compound 14"}]}
